Measured values from patent US11529324B2, “Use of Kv11.1 channel inhibitors for treatment of pulmonary hypertension” (Georgetown University, priority 2019, dated 2022).

How the values were obtained:
PAH-induced SD rats [1] = assay: Dofetilide treatment of SU5416/hypoxia PAH-induced and healthy SD rats, H&E lung histology and morphometric analysis (Example 5); assay type: in vivo, rat
Description: (§1) Male SD and Fischer rats were purchased from Charles River Laboratories International, Inc., (Wilmington, Mass., USA). To induce PAH, rats were subcutaneously injected with 20 mg/kg body weight SU5416 (inhibitor of vascular endothelial growth factor (VEGF) receptor Flk/1-KDR; MedChemExpress, Monmouth Junction, N.J., USA) and maintained in hypoxia^28-30. For hypoxia, animals were placed in a chamber (30″ w×20″ d×20″ h) regulated by an OxyCycler Oxygen Profile Controller (Model A84XOV; BioSpherix, Redfield, N.Y., USA) set to maintain 10% O2 with an influx of N2 gas, located in the animal care facility at the Georgetown University Medical Center. […] Animals were fed normal rat chow.
In a first experiment to determine the effects of a Kv11.1 inhibitor (dofetilide), SD rats were divided into 4 groups that were treated with (1) DMSO, (2) dofetilide, (3) DMSO+SU5416/Hypoxia, and (4) dofetilide+SU5416/Hypoxia, respectively (n=4 for each group). Dofetilide (10 mg/kg body weight) was dissolved in DMSO and injected intraperitoneally before the injection of SU5416. For histological examination, lung tissues were fixed in 10% formalin and embedded in paraffin. The Georgetown University Animal Care and Use Committee approved all animal experiments, and the investigation conformed to the National Institutes of Health Guide for the Care and Use of Laboratory Animals.
Paraffin-embedded tissues were cut and mounted on glass slides. Tissue sections were subjected to hematoxylin and eosin (H&E) stain and immunohistochemistry using anti-smooth muscle actin (anti-SMA) antibody (Abcam, Cambridge, UK) and Kv11.1 antibody (Alomone Labs, Jerusalem, Israel).
Lung slides were analyzed for pulmonary artery wall thickness. 30 vessels were analyzed per animal in each group, and four values of external and internal diameters for thickness were measured for each vessel. The wall thickness was calculated as difference of external and internal diameters by using Fiji software.
Means±SEM were calculated and then comparisons between two groups were analyzed using a two-tailed Student's t test, while comparisons between three or more groups were analyzed using ANOVA with a Student-Newman-Keuls post-hoc test. P<0.05 was considered to be significant.
To determine if pharmacological inhibition of Kv11.1 channels would affect PAH progression, healthy and PAH-induced SD rats were treated with Kv11.1 channel-specific blocker dofetilide. Lung tissues from four groups of SD rats (four rats in each group) were examined with H&E staining. […] PAH-induced rats in group (3) had increased intimal endothelial cell proliferation, increased SPAMWT, and reduced pulmonary arterial lumen diameter compared to control rats (FIGS. 6A and 6B).

PAH-induced SD rats [2] = assay: Lower doses of dofetilide in SU5416/hypoxia PAH-induced and healthy SD rats, H&E lung histology (Example 6); assay type: in vivo, rat
Description: as §1
In a second experiment to determine the effects of dofetilide, SD rats are divided into 4 groups that are treated with (1) DMSO, (2) dofetilide, (3) DMSO+SU5416/Hypoxia, and (4) dofetilide+SU5416/Hypoxia, respectively (n=4 for each group). Dofetilide (1000 μg/kg body weight) is dissolved in DMSO and injected intraperitoneally before the injection of SU5416. For histological examination, lung tissues are fixed in 10% formalin and embedded in paraffin.
In a third experiment to determine the effects of dofetilide, SD rats are divided into 4 groups that are treated with (1) DMSO, (2) dofetilide, (3) DMSO+SU5416/Hypoxia, and (4) dofetilide+SU5416/Hypoxia, respectively (n=4 for each group). Dofetilide (100 μg/kg body weight) is dissolved in DMSO and injected intraperitoneally before the injection of SU5416. For histological examination, lung tissues are fixed in 10% formalin and embedded in paraffin.
In a fourth experiment to determine the effects of dofetilide, SD rats are divided into 4 groups that are treated with (1) DMSO, (2) dofetilide, (3) DMSO+SU5416/Hypoxia, and (4) dofetilide+SU5416/Hypoxia, respectively (n=4 for each group). Dofetilide (10 μg/kg body weight) is dissolved in DMSO and injected intraperitoneally before the injection of SU5416. For histological examination, lung tissues are fixed in 10% formalin and embedded in paraffin.
To examine further if pharmacological inhibition of Kv11.1 channels would affect PAH progression, healthy and PAH-induced SD rats are treated with Kv11.1 channel-specific blocker dofetilide using lower doses (1 mg/kg, 0.1 mg/kg, 0.01 mg/kg, or 0.001 mg/kg) than was used in Example 5. Lung tissues from four groups of SD rats (four rats in each group) are examined with H&E staining. […] PAH-induced rats in Group (3) have increased intimal endothelial cell proliferation, increased SPAMWT, and reduced pulmonary arterial lumen diameter compared to control rats.

[3] = PAH-induced (SU5416/hypoxia) SD rats, dofetilide 10 mg/kg i.p. before SU5416, group (4) compared with PAH-induced group (3)
[4] = PAH-induced SD rats, dofetilide lower doses (1, 0.1, 0.01 or 0.001 mg/kg) i.p., Group (4) compared with Group (3)

SMILES: CN(CCOc1ccc(NS(C)(=O)=O)cc1)CCc1ccc(NS(C)(=O)=O)cc1 [dofetilide]
- pulmonary arterial lumen diameter (PAH-induced SD rats [1]; [3]): increased
- small pulmonary arterial media wall thickness (SPAMWT) (PAH-induced SD rats [1]; [3]): reduced
- PAH-induced changes in SPAMWT (PAH-induced SD rats [1]; dofetilide 10 mg/kg i.p., SPAMWT of PAH-induced dofetilide-treated group (4) statistically similar to control group (2)): completely eliminated
- small pulmonary arterial media wall thickness (SPAMWT) in control rats (PAH-induced SD rats [1]; healthy SD rats, dofetilide 10 mg/kg i.p. group (2) versus DMSO group (1), data not shown): no statistical differences
- pulmonary arterial lumen diameter (PAH-induced SD rats [2]; [4]): increased
- small pulmonary arterial media wall thickness (SPAMWT) (PAH-induced SD rats [2]; [4]): reduced
- PAH-induced changes in SPAMWT (PAH-induced SD rats [2]; dofetilide lower doses (1, 0.1, 0.01 or 0.001 mg/kg), SPAMWT of Group (4) statistically similar to control Group (2)): completely eliminates
- small pulmonary arterial media wall thickness (SPAMWT) in control rats (PAH-induced SD rats [2]; healthy SD rats, dofetilide lower doses Group (2) versus DMSO Group (1)): no statistical differences
